Test results published in the NIST ThermoML archive (doi:10.1021/je500381c).

Test: xn = mol fraction of the nth substance listed
Conditions: 100 kPa, Liquid; for mass density: Vibrating tube method

CC12CC3CC(C)(C1)CC(C)(C3)C2 [1,3,5-trimethyladamantane] + OCC1CCCCC1
Conditions	mass density, 313.15 K [kg/m3]	mass density, 318.15 K [kg/m3]	mass density, 323.15 K [kg/m3]	mass density, 328.15 K [kg/m3]	mass density, 333.15 K [kg/m3]	viscosity, 313.15 K [mPa·s]	viscosity, 318.15 K [mPa·s]	viscosity, 323.15 K [mPa·s]	viscosity, 328.15 K [mPa·s]	viscosity, 333.15 K [mPa·s]
x2 = 0	–	869.86	866.31	862.76	859.2	1.765	1.621	1.494	1.384	1.284
x2 = 0.1	–	871.69	868.04	864.39	860.72	1.878	1.71	1.564	1.435	1.322
x2 = 0.2001	–	874.3	870.63	866.94	863.23	2.1	1.898	1.723	1.569	1.436
x2 = 0.2997	–	877.27	873.58	869.86	866.13	2.402	2.151	1.936	1.752	1.59
x2 = 0.4	–	880.63	876.93	873.2	869.45	2.811	2.494	2.224	1.994	1.797
x2 = 0.4994	888.09	884.4	880.69	876.94	873.17	3.371	2.954	2.604	2.311	2.061
x2 = 0.5991	892.35	888.66	884.94	881.18	877.4	4.181	3.609	3.14	2.751	2.426
x2 = 0.7	897.2	893.49	889.76	885.99	882.2	5.366	4.552	3.899	3.367	2.93
x2 = 0.801	902.61	898.9	895.17	891.4	887.6	7.126	5.932	4.99	4.238	3.632
x2 = 0.8927	908.08	904.4	900.68	896.92	893.12	9.952	8.189	6.785	5.705	4.772
